The structures appear in SMILES notation.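 Assay format: 96-well plates, 48-hour exposure. At the GI50, growth is halved.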 Active and inactive are the calls of the source. Cut-off read from the data, not from the text of the source: active = GI50 up to about 1.1 µM and inactive = higher.

Experimental findings from ChEMBL document CHEMBL1201862, “PubChem BioAssay data set” (2004) are described below.

Test systems include M14; MCF7; HCC 2998; HCT-15; RXF 393; PC-3; SK-MEL-2; HOP-92; U-251; SF-295; SNB-78; EKVX; K562; SR; HT-29; A498; DU-145; SW-620; NCI-H460.
Holding throughout (assay): NCI tumour cell line growth inhibition, 48 h

Turning to `CC(C)Cc1ccc(C(C)/C=C2\CCC(CN3CCCCC3)C2=O)cc1` (centres undefined), the GI50 in the assay with M14 was 6.1 µM (inactive); with MCF7 it was 1.64 µM (inactive); in the assay with HCC 2998 it was 6.37 µM (inactive); in the assay with HCT-15, 2.75 µM; in the assay on RXF 393, 2.52 µM (inactive); with PC-3, 6.31 µM (inactive). Moreover, the GI50 with SK-MEL-2 was 13.3 µM (inactive); with HOP-92, 10.1 µM (inactive); in the assay with U-251 it was 2.14 µM (inactive); with SF-295, 13.3 µM (inactive); in the assay on SNB-78 it was 5.74 µM (inactive); in the assay with EKVX, 13.6 µM (inactive). The GI50 was 2.46 µM (inactive) with K562; 1.65 µM (inactive) in the assay on SR; 5.12 µM (inactive) in the assay on HT-29; 14.3 µM (inactive) with A498; 16.2 µM (inactive) in the assay on DU-145; 3.45 µM (inactive) with SW-620. Moreover, the GI50 with NCI-H460 was 26.7 µM (inactive).
